Reference: ChEMBL document CHEMBL1156029, “The discovery of thienopyridine analogues as potent IkappaB kinase beta inhibitors. Part II” (Bioorg Med Chem Lett, 2009)
Active and inactive are the calls of the source. The rule behind the calls is not given here.

What was measured:
[1] = molecular target: T1, Tyrosine-protein kinase ITK/TSK (Homo sapiens, UniProt Q08881); test: Inhibition of Itk
T1 sequence (Q08881 whole entry): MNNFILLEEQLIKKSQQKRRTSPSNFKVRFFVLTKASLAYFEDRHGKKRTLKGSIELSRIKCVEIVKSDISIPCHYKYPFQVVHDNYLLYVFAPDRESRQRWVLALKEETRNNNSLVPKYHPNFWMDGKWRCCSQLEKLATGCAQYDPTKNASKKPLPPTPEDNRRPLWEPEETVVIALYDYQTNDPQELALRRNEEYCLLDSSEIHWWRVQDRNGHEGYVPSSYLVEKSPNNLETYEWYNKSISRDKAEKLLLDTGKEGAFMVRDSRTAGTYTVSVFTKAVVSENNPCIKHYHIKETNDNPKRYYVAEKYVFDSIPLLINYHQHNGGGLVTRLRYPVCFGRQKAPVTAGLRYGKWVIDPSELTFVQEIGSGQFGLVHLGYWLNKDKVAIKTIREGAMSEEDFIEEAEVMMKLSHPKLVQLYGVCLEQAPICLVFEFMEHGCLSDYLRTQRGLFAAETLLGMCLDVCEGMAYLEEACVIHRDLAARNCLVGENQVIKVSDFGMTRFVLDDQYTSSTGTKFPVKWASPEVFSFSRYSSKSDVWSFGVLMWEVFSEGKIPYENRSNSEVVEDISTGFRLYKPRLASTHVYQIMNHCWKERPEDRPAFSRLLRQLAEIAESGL

HeLa = test: Inhibition of TNF-alpha-induced NF-kappaB transfected in human HeLa cells preincubated for 30 mins before TNFalpha challenge after 6 hrs by luciferase reporter gene assay; type: cell-based
[2] = Plasma concentration in mouse at 30 mg/kg, po after 120 mins; type: ADME, organism-based; set-up: dose 30 mg/kg, route oral
[3] = molecular target: T2, Inhibitor of nuclear factor kappa-B kinase subunit alpha (Homo sapiens, UniProt O15111); test: Inhibition of IKKalpha
T2 sequence (O15111 whole entry): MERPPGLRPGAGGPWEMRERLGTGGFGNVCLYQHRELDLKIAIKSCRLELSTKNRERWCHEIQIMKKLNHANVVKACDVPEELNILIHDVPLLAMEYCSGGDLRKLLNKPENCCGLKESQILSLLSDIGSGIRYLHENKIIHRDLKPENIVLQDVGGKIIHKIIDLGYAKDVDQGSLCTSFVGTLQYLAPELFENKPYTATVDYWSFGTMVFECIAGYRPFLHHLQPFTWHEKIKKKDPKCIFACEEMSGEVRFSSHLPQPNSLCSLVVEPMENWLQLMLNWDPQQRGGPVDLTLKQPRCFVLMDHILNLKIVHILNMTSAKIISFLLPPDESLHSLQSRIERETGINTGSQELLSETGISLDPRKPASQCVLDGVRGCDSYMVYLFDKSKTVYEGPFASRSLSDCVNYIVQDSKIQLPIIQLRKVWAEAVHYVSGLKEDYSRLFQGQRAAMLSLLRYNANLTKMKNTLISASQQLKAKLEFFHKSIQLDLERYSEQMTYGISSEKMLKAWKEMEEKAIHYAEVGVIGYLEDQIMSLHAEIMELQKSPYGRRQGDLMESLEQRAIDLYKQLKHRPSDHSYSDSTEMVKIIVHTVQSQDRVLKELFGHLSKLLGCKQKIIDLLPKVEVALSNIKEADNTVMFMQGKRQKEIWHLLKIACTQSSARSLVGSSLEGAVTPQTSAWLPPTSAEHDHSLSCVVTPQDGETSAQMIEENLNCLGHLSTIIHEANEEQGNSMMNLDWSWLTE

[4] = molecular target: Dual specificity mitogen-activated protein kinase kinase 1 (Homo sapiens) (UniProt Q02750); test: Inhibition of MKK1 at 10 uM
Dual specificity mitogen-activated protein kinase kinase 1 (Homo sapiens), sequence (Q02750 whole entry): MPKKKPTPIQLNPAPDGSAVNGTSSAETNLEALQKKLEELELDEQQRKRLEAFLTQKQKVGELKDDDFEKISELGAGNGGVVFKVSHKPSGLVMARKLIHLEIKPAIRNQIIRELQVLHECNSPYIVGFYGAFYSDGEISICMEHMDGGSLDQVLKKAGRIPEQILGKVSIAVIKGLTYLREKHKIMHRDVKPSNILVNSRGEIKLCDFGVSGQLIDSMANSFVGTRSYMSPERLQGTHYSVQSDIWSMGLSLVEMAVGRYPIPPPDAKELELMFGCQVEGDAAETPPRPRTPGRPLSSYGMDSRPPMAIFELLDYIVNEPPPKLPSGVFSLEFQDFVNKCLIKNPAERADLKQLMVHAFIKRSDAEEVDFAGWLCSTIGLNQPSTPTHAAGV

[5] = molecular target: T3, Mitogen-activated protein kinase 12 (Homo sapiens) (UniProt P53778); test: Inhibition of p38-gamma at 10 uM
T3 sequence (whole entry): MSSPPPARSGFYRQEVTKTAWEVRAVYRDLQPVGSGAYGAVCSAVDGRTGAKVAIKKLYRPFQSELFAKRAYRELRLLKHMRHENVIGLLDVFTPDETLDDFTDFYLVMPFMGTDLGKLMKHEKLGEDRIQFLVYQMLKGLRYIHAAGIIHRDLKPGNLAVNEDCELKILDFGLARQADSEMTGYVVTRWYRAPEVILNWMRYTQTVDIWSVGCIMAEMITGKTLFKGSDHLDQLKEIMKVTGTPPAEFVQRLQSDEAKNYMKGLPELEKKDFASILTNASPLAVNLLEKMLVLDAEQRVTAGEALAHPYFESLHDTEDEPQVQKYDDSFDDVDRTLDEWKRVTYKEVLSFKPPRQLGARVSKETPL

[6] = Inhibition of AMPK at 10 uM
[7] = Inhibition of CK2 at 10 uM
[8] = molecular target: Tyrosine-protein kinase CSK (Homo sapiens) (UniProt P41240); test: Inhibition of CSK at 10 uM
Tyrosine-protein kinase CSK (Homo sapiens), sequence (P41240 2-450 limits assumed): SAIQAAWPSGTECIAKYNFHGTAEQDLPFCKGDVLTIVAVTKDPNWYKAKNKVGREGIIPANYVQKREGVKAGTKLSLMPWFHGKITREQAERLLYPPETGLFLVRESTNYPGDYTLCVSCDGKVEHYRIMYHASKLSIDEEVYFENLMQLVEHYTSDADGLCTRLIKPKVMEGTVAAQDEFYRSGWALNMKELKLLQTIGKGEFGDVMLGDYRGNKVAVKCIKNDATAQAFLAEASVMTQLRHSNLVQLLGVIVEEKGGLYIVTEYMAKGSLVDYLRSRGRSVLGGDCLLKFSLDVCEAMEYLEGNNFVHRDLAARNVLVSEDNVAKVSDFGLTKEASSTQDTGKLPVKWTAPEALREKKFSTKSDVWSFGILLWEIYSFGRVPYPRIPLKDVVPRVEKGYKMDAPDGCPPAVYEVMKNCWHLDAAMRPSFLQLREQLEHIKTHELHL

[9] = molecular target: Cyclin-dependent kinase 2/cyclin A (Homo sapiens) (UniProt P24941+P20248+P78396); test: Inhibition of CDK2/cyclin A at 10 uM; type: protein-complex assay
[10] = Inhibition of PP2a at 10 uM

Q: Which IC50 [1] does the source give for `CCCc1cc(N2CCCC(O)C2)nc2sc(C(N)=O)c(N)c12` (centres undefined) here?
A: > 7 µM

Q: And the IC50 (HeLa)?
A: 6.1 µM

Q: What about the concentration at 2 h [2] of the same compound?
A: 3.1 µM

Q: And the IC50 [3]?
A: 13.3 µM

Q: What about the Activity [4] of the same compound?
A: inactive

Q: And the Activity [5]?
A: inactive

Q: And the Activity [6]?
A: inactive

Q: And the Activity [7]?
A: inactive

Q: What about the Activity [8] of the same compound?
A: inactive

Q: And the Activity [9]?
A: inactive

Q: What about the Activity [10] of the same compound?
A: inactive

Q: With `CCCc1cc(N2CCNCC2)nc2sc(C(N)=O)c(N)c12` as the compound, how does the IC50 [1] read?
A: > 7 µM

Q: And the IC50 (HeLa)?
A: 7.5 µM

Q: What about the concentration at 2 h [2] of the same compound?
A: < 0.01 µM

Q: And the IC50 [3]?
A: 3.4 µM

Q: And the Activity [4]?
A: inactive

Q: What about the Activity [5] of the same compound?
A: inactive

Q: And the Activity [6]?
A: inactive

Q: What about the Activity [7] of the same compound?
A: inactive

Q: What about the Activity [8] of the same compound?
A: inactive

Q: And the Activity [9]?
A: inactive

Q: And the Activity [10]?
A: inactive

Q: For `CCCc1cc(N2CCC(O)CC2)nc2sc(C(N)=O)c(N)c12`, which IC50 [1] is on record?
A: > 7 µM

Q: What about the IC50 (HeLa) of the same compound?
A: 5.3 µM

Q: What about the concentration at 2 h [2] of the same compound?
A: 15.5 µM

Q: What about the IC50 [3] of the same compound?
A: 11.2 µM

Q: And the Activity [4]?
A: inactive

Q: What about the Activity [5] of the same compound?
A: inactive

Q: What about the Activity [6] of the same compound?
A: inactive

Q: What about the Activity [7] of the same compound?
A: inactive

Q: What about the Activity [8] of the same compound?
A: inactive

Q: And the Activity [9]?
A: inactive

Q: What about the Activity [10] of the same compound?
A: inactive

Q: With `CCCc1cc(N2CCC(N)CC2)nc2sc(C(N)=O)c(N)c12` as the compound, how does the IC50 [1] read?
A: > 7 µM

Q: And the IC50 (HeLa)?
A: 1.5 µM

Q: What about the concentration at 2 h [2] of the same compound?
A: 0.02 µM

Q: And the IC50 [3]?
A: 0.09 µM

Q: And the Activity [4]?
A: inactive

Q: And the Activity [5]?
A: inactive

Q: What about the Activity [6] of the same compound?
A: inactive

Q: And the Activity [7]?
A: inactive

Q: And the Activity [8]?
A: inactive

Q: What about the Activity [9] of the same compound?
A: inactive

Q: And the Activity [10]?
A: inactive
